# Assay results taken from patent publication US20110086834A1, “ALKYNYL ALCOHOLS AS KINASE INHIBITORS” (AMGEN INC., priority 2008, published 2011).
# Target: T1, NIK (Homo sapiens, UniProt Q99558)
# T1 construct: Both assays utilize a truncated form of NIK containing only the catalytic domain; made in house; host or cells: baculovirus expression system (insect cells implied)
# Assay: homogenous time resolved fluorescence (HTRF) assay for NIK Ki measurement
# Format: biochemical
# Conditions: truncated NIK (catalytic domain only), autophosphorylation; 10 nM enzyme; 20, 100, 200 or 500 μM ATP; room temperature, 2 hours; read-out: Ki activity in the homogenous time resolved fluorescence (HTRF) assay for NIK
# T1 sequence (Q99558 400-655 limits assumed): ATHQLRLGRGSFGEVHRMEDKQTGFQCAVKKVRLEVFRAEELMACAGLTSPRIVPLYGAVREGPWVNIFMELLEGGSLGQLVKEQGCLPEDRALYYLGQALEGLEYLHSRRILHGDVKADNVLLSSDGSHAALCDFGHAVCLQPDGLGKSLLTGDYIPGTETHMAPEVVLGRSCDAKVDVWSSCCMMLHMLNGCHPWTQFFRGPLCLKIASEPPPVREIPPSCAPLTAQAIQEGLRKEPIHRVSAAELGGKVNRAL
row,SMILES,Ki [nM]
1,"CC(O)(C#Cc1ccc2c(c1)N(c1nc(N)ncc1Cl)CC2)c1ncc(C#N)s1 (stereo not drawn) [Example 34, 2-(4-(1-(2-amino-5-chloropyrimidin-4-yl)indolin-6-yl)-2-hydroxybut-3-yn-2-yl)thiazole-5-carbonitrile]",< 1000
2,"Nc1ncc(OCc2cccnc2)c(-c2c[nH]c3ccc(C#CC4(O)CCCC4)cc23)n1 [Example 232, 1-((3-(2-Amino-5-(3-pyridinylmethoxy)-4-pyrimidinyl)-1H-indol-5-yl)ethynyl)cyclopentanol]",< 1000
3,"Nc1ncc2c(n1)-c1c(nc3ccc(C#CC4(O)CCCC4)cn13)CCC2 [Example 249, 1-((2-amino-6,7-dihydro-5H-pyrido[1″,2″:1′,2′]imidazo[4′,′:6,7]cyclohepta[1,2-d]pyrimidin-11-yl)ethynyl)cyclopentanol]",< 1000
4,"COCCOc1ccc(C#C[C@](C)(O)c2cc(C)on2)cc1Nc1nc(N)ncc1Cl (single isomer, unassigned) [Example 178]",1000 to 30000
5,"Cc1cc(C(C)(O)C#Cc2ccc3c(c2)N(c2nc(N)ncc2Cl)CC3)no1 (racemic) [Example 23, 4-(1-(2-amino-5-chloropyrimidin-4-yl)indolin-6-yl)-2-(5-methylisoxazol-3-yl)but-3-yn-2-ol]",< 1000
6,"CC1(C)CN(c2nc(N)ncc2Cl)c2cc(C#C[C@@](C)(O)c3nccs3)ccc21 (single isomer, unassigned) [Example 40]",< 1000
7,Cc1cc(C(C)(O)C#Cc2ccc(O[C@H]3CCOC3)c(Nc3nc(N)ncc3Cl)c2)no1 (stereo partly drawn) [Example 156],< 1000
8,"CC(O)(C#Cc1ccc2c(c1)N(c1ncncn1)CC2(C)C)c1nccs1 (stereo not drawn) [Example 38, 4-(3,3-dimethyl-1-(1,3,5-triazin-2-yl)-2,3-dihydro-1H-indol-6-yl)-2-(1,3-thiazol-2-yl)-3-butyn-2-ol]",< 1000
9,"COCCN1CC2(C1)CN(c1nc(N)ncc1Cl)c1cc(C#C[C@@](C)(O)c3nccs3)ccc12 [Example 183, (2R)-4-(1′-(2-amino-5-chloropyrimidin-4-yl)-1-(2-methoxyethyl)spiro[azetidine-3,3′-indoline]-6′-yl)-2-(thiazol-2-yl)but-3-yn-2-ol]",< 1000
10,"Cc1cc(C(C)(O)C#Cc2ccc(F)c(Nc3nc(N)ncc3Cl)c2)no1 (stereo not drawn) [Example 167, 4-(3-(2-Amino-5-chloropyrimidin-4-ylamino)-4-fluorophenyl)-2-(5-methylisoxazol-3-yl)but-3-yn-2-ol]",< 1000
11,"Nc1ncc(Cl)c(-c2cn(CCN3CCOCC3)c3ccc(C#CC4(O)CCCC4)cc23)n1 [Example 126, 1-(2-(3-(2-amino-5-chloropyrimidin-4-yl)-1-(2-morpholinoethyl)-1H-indol-5-yl)ethynyl)cyclopentanol]",< 1000
12,"CC(O)(C#Cc1ccc2c(c1)N(c1nc(N)ncc1Cl)CC2(C)C)c1ccn[nH]1 (stereo not drawn) [Example 80, 4-(1-(2-amino-5-chloropyrimidin-4-yl)-3,3-dimethylindolin-6-yl)-2-(1H-pyrazol-5-yl)but-3-yn-2-ol and 4-(1-(2-amino-5-chloropyrimidin-4-yl)-3,3-dimethylindolin-6-yl)-2-(1H-pyrazol-3-yl)but-3-yn-2-ol]",< 1000
13,"Cn1cc(-c2ccncn2)c2cc(C#CC(C)(O)c3cscn3)ccc21 (stereo not drawn) [Example 118, 4-(1-methyl-3-(pyrimidin-4-yl)-1H-indol-5-yl)-2-(thiazol-4-yl)but-3-yn-2-ol]",< 1000
14,"Nc1nccc(C2=CC3(CCOCC3)c3ccc(C#CC4(O)CCCC4)cc32)n1 [Example 220, 1-((3-(2-Amino-4-pyrimidinyl)-2′,3′,5′,6′-tetrahydrospiro[indene-1,4′-pyran]-5-yl)ethynyl)cyclopentanol]",< 1000
15,"CNc1ncc2c(n1)-c1c(nc3ccc(C#CC(C)(C)O)cn13)CCC2 [Example 252, 2-methyl-4-(2-(methylamino)-6,7-dihydro-5H-pyrido[1″,2″:1′,2′]imidazo[4′,′:6,7]-cyclohepta[1,2-d]pyrimidin-11-yl)-3-butyn-2-ol]",1000 to 30000
16,"CN1CCC2(C1)CN(c1nc(N)ncc1F)c1cc(C#CC3(O)CCCC3)ccc12 (racemic) [Example 190, (rac)-1-((1-(2-Amino-5-fluoro-4-pyrimidinyl)-1′-methyl-1,2-dihydrospiro[indole-3,3′-pyrrolidin]-6-yl)ethynyl)cyclopentanol]",< 1000
17,"CC1(C)CN(c2nc(N)nc3[nH]cnc23)c2cc(C#CC3(O)CCCC3)ccc21 [Example 75, 1-((1-(2-amino-9H-purin-6-yl)-3,3-dimethyl-2,3-dihydro-1H-indol-6-yl)ethynyl)cyclopentanol]",< 1000
18,"Cc1nc(C(C)(O)C#Cc2ccc3c(c2)N(c2nc(N)ncc2Cl)CC3)no1 (stereo not drawn) [Example 2, 4-(1-(2-amino-5-chloropyrimidin-4-yl)indolin-6-yl)-2-(5-methyl-1,2,4-oxadiazol-3-yl)but-3-yn-2-ol]",< 1000
19,"CC(O)(C#Cc1ccc2c(c1)N(c1nc(N)ncc1Cl)CC21CCCC1)c1nccs1 (stereo not drawn) [Example 317, 4-(1′-(2-amino-5-chloro-4-pyrimidinyl)-1′,2′-dihydrospiro[cyclopentane-1,3′-indol]-6′-yl)-2-(1,3-thiazol-2-yl)-3-Butyn-2-ol]",< 1000

# The next lines start with the values.
row,Ki [nM],SMILES
1,< 1000,"CC(=O)n1cc(-c2nc(N)ncc2Cl)c2cc(C#CC3(O)CCCC3)ccc21 [Example 120, 1-(3-(2-amino-5-chloropyrimidin-4-yl)-5-(2-(1-hydroxycyclopentyl)ethynyl)-1H-indol-1-yl)ethanone]"
2,< 1000,"Nc1ncc(Cl)c(-c2c[nH]c3ccc(C#CC4(O)CCCC4)cc23)n1 [Example 107, 1-(2-(3-(2-amino-5-chloropyrimidin-4-yl)-1H-indol-5-yl)ethynyl)cyclopentanol]"
3,1000 to 30000,"CC(C)(C)C(C)(O)C#Cc1ccc2c(c1)N(c1ccnc(N)n1)CC2 (stereo not drawn) [Example 268, 1-(1-(2-Amino-4-pyrimidinyl)-2,3-dihydro-1H-indol-6-yl)-3,4,4-trimethyl-1-pentyn-3-ol]"
4,< 1000,"COCCOCCn1cc(-c2nc(N)ncc2Cl)c2cc(C#CC3(O)CCCC3)ccc21 [Example 124, 1-(2-(3-(2-amino-5-chloropyrimidin-4-yl)-1-(2-(2-methoxyethoxy)ethyl)-1H-indol-5-yl)ethynyl)cyclopentanol]"
5,< 1000,"Nc1ncc(Cl)c(-c2cn(C(=O)C3CC3)c3ccc(C#CC4(O)CCCC4)cc23)n1 [Example 121, (3-(2-amino-5-chloropyrimidin-4-yl)-5-(2-(1-hydroxycyclopentyl)ethynyl)-1H-indol-1-yl)(cyclopropyl)methanone]"
6,< 1000,"CC1(CCC#N)CN(c2nc(N)ncc2F)c2cc(C#CC3(O)CCCC3)ccc21 (stereo not drawn) [Example 67, 3-(1-(2-amino-5-fluoro-4-pyrimidinyl)-6-((1-hydroxycyclopentyl)ethynyl)-3-methyl-2,3-dihydro-1H-indol-3-yl)propanenitrile]"
7,< 1000,"Cc1cc(C(C)(O)C#Cc2ccc3[nH]c(C)c(-c4ccncc4)c3c2)no1 (stereo not drawn) [Example 104, 4-(2-methyl-3-(pyridin-4-yl)-1H-indol-5-yl)-2-(5-methylisoxazol-3-yl)but-3-yn-2-ol]"
8,< 1000,"CC(O)(C#Cc1ccc2c(c1)N(c1ccncc1)CC2(CO)CO)c1nccs1 (stereo not drawn) [Example 59, 4-(3,3-bis(hydroxymethyl)-1-(4-pyridinyl)-2,3-dihydro-1H-indol-6-yl)-2-(1,3-thiazol-2-yl)-3-butyn-2-ol]"
9,< 1000,"C[C@@](O)(C#Cc1ccc2c(c1)N(c1ccncn1)CC21CCOCC1)c1nccs1 [Example 33, (2R)-4-(1-pyrimidin-4-yl-1,2,2′,3′,5′,6′-hexahydrospiro[indole-3,4′-pyran]-6-yl)-2-(1,3-thiazol-2-yl)but-3-yn-2-ol]"
10,< 1000,"CC(C)(O)C#Cc1ccc2c(c1)N(c1nc(N)ncc1Cl)CC21CCS(=O)(=O)CC1 [Example 217, 4-(1-(2-Amino-5-chloro-4-pyrimidinyl)-1′,1′-dioxido-1,2,2′,3′,5′,6′-hexahydrospiro[indole-3,4′-thiopyran]-6-yl)-2-methyl-3-butyn-2-ol]"
11,< 1000,CC(O)(C#Cc1ccc(O[C@@H]2CCOC2)c(Nc2nc(N)ncc2Cl)c1)c1nccs1 (stereo partly drawn) [Example 159]
12,< 1000,"CC(O)(C#Cc1ccc2c(c1)N(c1nc(N)ncc1Cl)CC21CCSCC1)c1nccs1 (racemic) [Example 214, (rac)-4-(1-(2-Amino-5-chloro-4-pyrimidinyl)-1,2,2′,3′,5′,6′-hexahydrospiro[indole-3,4′-thiopyran]-6-yl)-2-(1,3-thiazol-2-yl)-3-butyn-2-ol]"
13,< 1000,"CC(C)(C#Cc1ccc2c(c1)N(c1nc(N)ncc1Cl)CC2(C)CO)C(=O)OCc1ccccc1 (single isomer, unassigned) [Example 57, benzyl 4-((3S*)-1-(2-amino-5-chloro-4-pyrimidinyl)-3-(hydroxymethyl)-3-methyl-2,3-dihydro-1H-indol-6-yl)-2,2-dimethyl-3-butynoate]"
14,< 1000,"CN1CC2(C1)CN(c1nc(N)ncc1Cl)c1cc(C#CC(C)(O)c3nccs3)ccc12 (racemic) [Example 181, (rac)-4-(1′-(2-amino-5-chloropyrimidin-4-yl)-1-methylspiro[azetidine-3,3′-indoline]-6′-yl)-2-(thiazol-2-yl)but-3-yn-2-ol]"
15,< 1000,"COCCOc1cc(C#CC2(O)CCCC2)cc2c1ccn2-c1ccnc(N)n1 [Example 100, 1-(2-(1-(2-aminopyrimidin-4-yl)-4-(2-methoxyethoxy)-1H-indol-6-yl)ethynyl)cyclopentanol]"
16,< 1000,"CC(O)(C#Cc1ccc2c(c1)N(c1nc(N)ncc1Cl)CC21CCS(=O)(=O)CC1)c1nccs1 (racemic) [Example 215, (rac)-4-(1-(2-Amino-5-chloro-4-pyrimidinyl)-1′,1′-dioxido-1,2,2′,3′,5′,6′-hexahydrospiro[indole-3,4′-thiopyran]-6-yl)-2-(1,3-thiazol-2-yl)-3-butyn-2-ol]"
17,< 1000,"C[C@@](O)(C#Cc1ccc2c(c1)N(c1ccnc(N)n1)CC2)c1nccs1 [Example 294, (2R)-4-(1-(2-amino-4-pyrimidinyl)-2,3-dihydro-1H-indol-6-yl)-2-(1,3-thiazol-2-yl)-3-Butyn-2-ol]"
